{"source": "patent US8846746B2", "about": "“Pyrazole compound and pharmaceutical use thereof” (Japan Tobacco Inc., priority 2011, dated 2014)", "data": [{"molecular_target": "human SGLT1 (Homo sapiens (Human), UniProt P13866)", "sequence (P13866 whole entry)": "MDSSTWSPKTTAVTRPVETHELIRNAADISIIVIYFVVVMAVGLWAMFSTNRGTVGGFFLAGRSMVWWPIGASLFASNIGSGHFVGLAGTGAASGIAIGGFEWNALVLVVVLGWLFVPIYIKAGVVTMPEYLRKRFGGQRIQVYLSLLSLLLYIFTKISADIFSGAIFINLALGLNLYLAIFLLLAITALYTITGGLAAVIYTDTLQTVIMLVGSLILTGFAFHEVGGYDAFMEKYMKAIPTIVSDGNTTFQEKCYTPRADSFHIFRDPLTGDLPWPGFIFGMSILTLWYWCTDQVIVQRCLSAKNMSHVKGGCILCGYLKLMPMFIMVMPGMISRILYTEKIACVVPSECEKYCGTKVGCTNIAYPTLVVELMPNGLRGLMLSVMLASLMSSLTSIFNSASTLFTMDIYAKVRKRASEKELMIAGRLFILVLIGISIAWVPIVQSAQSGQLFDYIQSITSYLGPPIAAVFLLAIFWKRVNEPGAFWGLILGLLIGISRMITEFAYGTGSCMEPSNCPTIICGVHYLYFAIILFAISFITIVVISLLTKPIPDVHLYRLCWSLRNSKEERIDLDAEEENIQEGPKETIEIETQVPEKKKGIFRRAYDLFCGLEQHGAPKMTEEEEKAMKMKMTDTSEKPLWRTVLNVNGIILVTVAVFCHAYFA", "assay": "SGLT1 inhibitory activity: 14C-AMG uptake into CHO-K1 cell line stably expressing human SGLT1", "format": "cell-based", "conditions": "14C-AMG uptake, CHO-K1 cells expressing human SGLT1", "experimental": "(§1) SGLT1 inhibitory activity of a test compound (IC50 value) was calculated based on an amount of intake into a cell of labeled α-methyl-D-glucopyranoside (^14C-AMG) which is transported by SGLT1.\n(§2) 1) Construction of Human SGLT1 Expression Plasmid\n(§3) A DNA fragment containing human SGLT1, wherein NheI recognition and cleavage sequence was added upstream of a Kozac consensus sequence of the vector; and a stop codon (TAG) and a SalI recognition and cleavage sequence was added just downstream of a coding region of the human SGLT1, was amplified by PCR using pCMV6-hSGLT1 (OriGene) as a template. The purified DNA fragment was cleaved by restriction enzymes NheI and SalI, and the obtained fragment was ligated into pcDNA3.1 (+) which was cleaved by NheI and XhoI to construct human SGLT1 expression plasmid.\n(§4) 2) Establishment of Stable Cell Lines Expressing Human SGLT1\n(§5) A human SGLT1 expression plasmid pcDNA-hSGLT1 was transfected into CHO-K1 cells by Lipofectamine-2000 (Invitrogen). The cells were cultured in the presence of G418 (Nakalai tesque) and drug-resistant cells were selected. A cell line having the highest S/B ratio of an amount of ^14C-AMG uptake per cell treated by solvent to an amount of ^14C-AMG uptake per cell treated by phlorizin (SGLT inhibitor) was selected from the drug-resistant cells as a stable cell lines expressing human SGLT1.\n(§6) 3) Evaluation of SGLT1 Inhibitory Activity\n(§7) The stable cell line expressing human SGLT1 was seeded at 5×10^4 cells/well on BioCoat™ Poly-D-Lysine 96 well plate with Lid (Becton Dickinson and Company) and cultured at 37° C. under 5% CO2 overnight. The medium was replaced with 100 μL/well of a Na (−) buffer (140 mM choline chloride, 2 mM KCl, 1 mM MgCl2, 1 mM CaCl2, 10 mM HEPES, 5 mM Tris, pH7.4) followed by incubation for 20 minutes at 37° C. under 5% CO2. After removing the Na (−) buffer, a test compound solution which was prepared from Na (+) buffer (140 mM NaCl, 2 mM KCl, 1 mM MgCl2, 1 mM CaCl2, 10 mM HEPES, 5 mM Tris, pH7.4) containing BSA was added thereto at 40 μL/well. In addition, Na (+) buffer containing 8 kBq of ^14C-AMG and 2 mM AMG was added thereto at 40 μL/well, and was mixed well. Na (−) buffer containing BSA was added to a blank well at 40 μL/well and additionally adding a Na (+) buffer containing 8 kBq of ^14C-AMG and 2 mM AMG, and was mixed well. Cells were incubated for 1 hour at 37° C. under 5% CO2. After the reaction, the cells were washed twice with 100 μL/well of iced wash buffer (100 mM AMG, 140 mM choline chloride, 2 mM KCl, 1 mM MgCl2, 1 mM CaCl2, 10 mM HEPES, 5 mM Tris, pH7.4), then lysed in 50 μL/well of a 0.2N aqueous solution of NaOH. The cell lysate was transferred to OptiPlate96 (Perkin-Elmer) and 100 μL/well of MicroScint-40 (Perkin-Elmer) was dispensed. The radioactivity was counted by TOPCOUNT NXT (Perkin-Elmer).\n(§8) A data was obtained by deducting the average value (CPM) of blank wells from the average value (CPM) of each treated well. The inhibition ratio (%) was calculated by the following formula: inhibition rate (%)=[(A−B)/A]×100, where A is a data of the solvent control, and B is a data of a test compound.", "units": {"IC50": "nM"}, "values": [{"molecule": "O=C1CCC(C(=O)Nc2cc(-c3cccc(OC(F)(F)F)c3)n(-c3cccc(F)c3)n2)CN1", "note": "(single isomer, unassigned) [Example 168]", "IC50": 36}, {"molecule": "CCC(F)(F)c1cccc(-c2cc(NC(=O)C3CCC(=O)NC3)nn2-c2cccc(F)c2)c1", "note": "(single isomer, unassigned) [Example 171]", "IC50": 8.3}, {"molecule": "CCC(F)(F)c1cccc(-c2cc(NC(=O)C3CCC(=O)NC3)nn2C2CCOCC2)c1", "note": "(single isomer, unassigned) [Example 185]", "IC50": 66}, {"molecule": "CC(C)(C)c1cccc(-c2cc(NC(=O)C3CCC(=O)NC3)nn2C2CCOCC2)c1", "note": "(single isomer, unassigned) [Example 186]", "IC50": 75}, {"molecule": "O=C1CCC(C(=O)Nc2cc(-c3cccc(OC(F)(F)F)c3)n(C3CCOCC3)n2)CN1", "note": "(single isomer, unassigned) [Example 189]", "IC50": 200}, {"molecule": "C[C@H]1C(=O)NC[C@@H]1C(=O)Nc1cc(-c2cccc(OC(F)(F)F)c2)n(-c2ccccc2)n1", "note": "[Example 1, (3R,4R)-4-methyl-5-oxopyrrolidine-3-carboxylic acid[1-phenyl-5-(3-trifluoromethoxyphenyl)-1H-pyrazol-3-yl]amide]", "IC50": 4}, {"molecule": "C[C@H]1C(=O)NC[C@@H]1C(=O)Nc1cc(-c2cccc(OC(F)(F)F)c2)n(-c2ccc(F)cc2)n1", "note": "[Example 2, (3R,4R)-4-methyl-5-oxopyrrolidine-3-carboxylic acid[1-(4-fluorophenyl)-5-(3-(trifluoromethoxy)phenyl)-1H-pyrazol-3-yl]amide]", "IC50": 3.4}, {"molecule": "C[C@H]1C(=O)NC[C@@H]1C(=O)Nc1cc(-c2cccc(OC(F)(F)F)c2)n(-c2cccc(F)c2)n1", "note": "[Example 3, (3R,4R)-4-methyl-5-oxopyrrolidine-3-carboxylic acid[1-(3-fluorophenyl)-5-(3-(trifluoromethoxy)phenyl)-1H-pyrazol-3-yl]amide]", "IC50": 6.2}]}, {"molecular_target": "human SGLT1 (Homo sapiens (Human), UniProt P13866)", "assay": "SGLT1 inhibitory activity: 14C-AMG uptake into CHO-K1 cell line stably expressing human SGLT1", "format": "cell-based", "conditions": "14C-AMG uptake, CHO-K1 cells stably expressing human SGLT1", "experimental": "as §1, §2, §3, §4, §5, §6, §7, §8", "units": {"IC50": "nM"}, "values": [{"molecule": "O=C(Nc1cc(-c2cccc(COCC(F)(F)F)c2)n(-c2ccccc2)n1)C1CNC(=O)C12CC2", "note": "(single isomer, unassigned) [Example 250, 4-oxo-5-azabispiro[2.4]heptane-7-carboxylic acid{1-phenyl-5-[3-(2,2,2-trifluoroethoxymethyl)phenyl]-1H-pyrazol-3-yl}amide]", "IC50": 3.4}, {"molecule": "CCCc1cccc(-c2cc(NC(=O)C3CNC(=O)C3CC)nn2-c2ccccc2)c1", "note": "(single isomer, unassigned) [Example 307]", "IC50": 6}, {"molecule": "CCC1C(=O)NCC1C(=O)Nc1cc(-c2cccc(OC(F)(F)F)c2)n(-c2ccccc2)n1", "note": "(single isomer, unassigned) [Example 308]", "IC50": 16}, {"molecule": "CCCc1cccc(-c2cc(NC(=O)C3CNC(=O)C3CC)nn2-c2ccccc2)c1", "note": "(single isomer, unassigned) [Example 309]", "IC50": 49}, {"molecule": "CC(C)(C)COCc1cccc(-c2cc(NC(=O)C3CCC(=O)NC3)nn2-c2ccccc2)c1", "note": "(single isomer, unassigned) [Example 333]", "IC50": 20}, {"molecule": "CC(C)(C)OCc1cccc(-c2cc(NC(=O)C3CCC(=O)NC3)nn2-c2ccccc2)c1", "note": "(single isomer, unassigned) [Example 336]", "IC50": 25}, {"molecule": "O=C1CCC(C(=O)Nc2cc(-c3cccc(COCCC(F)(F)F)c3)n(-c3ccccc3)n2)CN1", "note": "(single isomer, unassigned) [Example 338]", "IC50": 17}, {"molecule": "CC(C)(C)CCOc1cccc(-c2cc(NC(=O)C3CCC(=O)NC3)nn2-c2ccccc2)c1", "note": "(single isomer, unassigned) [Example 342]", "IC50": 45}, {"molecule": "CCCc1cccc(-c2cc(NC(=O)C3CNC(=O)C34CC4)nn2-c2ccccc2)c1", "note": "(single isomer, unassigned) [Example 360]", "IC50": 1.5}, {"molecule": "CCCc1cccc(-c2cc(NC(=O)C3CC(=O)NC3C)nn2-c2ccccc2)c1", "note": "(single isomer, unassigned) [Example 404]", "IC50": 18}, {"molecule": "O=C1CCC(C(=O)Nc2cc(-c3cccc(COCC(F)(F)F)c3)n(-c3ccccc3)n2)CN1", "note": "(single isomer, unassigned) [Example 560]", "IC50": 24}]}]}
